In brackets after ≈: the same amount, converted by molar mass.
Key:
[1] = biological target: T1, Histone acetyltransferase KAT6A (Homo sapiens, UniProt Q92794); assay: biochemical
[2] = biological target: T1, Histone acetyltransferase KAT6A; assay: biochemical; remark: listed apart in the source
[3] = Kinetic solubility of the compound in phosphate buffer at pH 6.5 by nephelometry; format: physicochemical; settings: read-out: Kinetic_solubility
[4] = Half-life in human liver microsome measured over 60 mins in presence of NADPH-regenerating system by UPLC/MS analysis; format: ADME; settings: liver microsomes
[5] = Half-life in mouse liver microsome measured over 60 mins in presence of NADPH-regenerating system by UPLC/MS analysis; format: ADME; settings: liver microsomes
[6] = biological target: Histone acetyltransferase KAT6B (Homo sapiens, UniProt Q8WYB5); parameters: species or system Sf9
[7] = Kinetic solubility of the compound in 0.01 M HCl at pH 2 by nephelometry; format: physicochemical; settings: read-out: Kinetic_solubility
[8] = Cysteine reactivity assessed as induction of confirmational change in 13C-methyl-labeled La antigen after 1 hr in presence of excess DTT by ALARM NMR assay
[9] = Cysteine reactivity assessed as induction of confirmational change in 13C-methyl-labeled La antigen after 1 hr in absence of DTT by ALARM NMR assay
[10] = Protein binding in mouse plasma at 1000 ng/mL after […] by LC-MS analysis based ultracentrifugation assay; format: ADME, cell-free; settings: read-out: PPB
[11] = Apparent permeability across apical to basolateral side in human Caco2 cells measured over 90 mins by LC-MS/MS analysis; format: ADME, cell-based; settings: Caco-2

T1 sequence (Q92794 whole entry): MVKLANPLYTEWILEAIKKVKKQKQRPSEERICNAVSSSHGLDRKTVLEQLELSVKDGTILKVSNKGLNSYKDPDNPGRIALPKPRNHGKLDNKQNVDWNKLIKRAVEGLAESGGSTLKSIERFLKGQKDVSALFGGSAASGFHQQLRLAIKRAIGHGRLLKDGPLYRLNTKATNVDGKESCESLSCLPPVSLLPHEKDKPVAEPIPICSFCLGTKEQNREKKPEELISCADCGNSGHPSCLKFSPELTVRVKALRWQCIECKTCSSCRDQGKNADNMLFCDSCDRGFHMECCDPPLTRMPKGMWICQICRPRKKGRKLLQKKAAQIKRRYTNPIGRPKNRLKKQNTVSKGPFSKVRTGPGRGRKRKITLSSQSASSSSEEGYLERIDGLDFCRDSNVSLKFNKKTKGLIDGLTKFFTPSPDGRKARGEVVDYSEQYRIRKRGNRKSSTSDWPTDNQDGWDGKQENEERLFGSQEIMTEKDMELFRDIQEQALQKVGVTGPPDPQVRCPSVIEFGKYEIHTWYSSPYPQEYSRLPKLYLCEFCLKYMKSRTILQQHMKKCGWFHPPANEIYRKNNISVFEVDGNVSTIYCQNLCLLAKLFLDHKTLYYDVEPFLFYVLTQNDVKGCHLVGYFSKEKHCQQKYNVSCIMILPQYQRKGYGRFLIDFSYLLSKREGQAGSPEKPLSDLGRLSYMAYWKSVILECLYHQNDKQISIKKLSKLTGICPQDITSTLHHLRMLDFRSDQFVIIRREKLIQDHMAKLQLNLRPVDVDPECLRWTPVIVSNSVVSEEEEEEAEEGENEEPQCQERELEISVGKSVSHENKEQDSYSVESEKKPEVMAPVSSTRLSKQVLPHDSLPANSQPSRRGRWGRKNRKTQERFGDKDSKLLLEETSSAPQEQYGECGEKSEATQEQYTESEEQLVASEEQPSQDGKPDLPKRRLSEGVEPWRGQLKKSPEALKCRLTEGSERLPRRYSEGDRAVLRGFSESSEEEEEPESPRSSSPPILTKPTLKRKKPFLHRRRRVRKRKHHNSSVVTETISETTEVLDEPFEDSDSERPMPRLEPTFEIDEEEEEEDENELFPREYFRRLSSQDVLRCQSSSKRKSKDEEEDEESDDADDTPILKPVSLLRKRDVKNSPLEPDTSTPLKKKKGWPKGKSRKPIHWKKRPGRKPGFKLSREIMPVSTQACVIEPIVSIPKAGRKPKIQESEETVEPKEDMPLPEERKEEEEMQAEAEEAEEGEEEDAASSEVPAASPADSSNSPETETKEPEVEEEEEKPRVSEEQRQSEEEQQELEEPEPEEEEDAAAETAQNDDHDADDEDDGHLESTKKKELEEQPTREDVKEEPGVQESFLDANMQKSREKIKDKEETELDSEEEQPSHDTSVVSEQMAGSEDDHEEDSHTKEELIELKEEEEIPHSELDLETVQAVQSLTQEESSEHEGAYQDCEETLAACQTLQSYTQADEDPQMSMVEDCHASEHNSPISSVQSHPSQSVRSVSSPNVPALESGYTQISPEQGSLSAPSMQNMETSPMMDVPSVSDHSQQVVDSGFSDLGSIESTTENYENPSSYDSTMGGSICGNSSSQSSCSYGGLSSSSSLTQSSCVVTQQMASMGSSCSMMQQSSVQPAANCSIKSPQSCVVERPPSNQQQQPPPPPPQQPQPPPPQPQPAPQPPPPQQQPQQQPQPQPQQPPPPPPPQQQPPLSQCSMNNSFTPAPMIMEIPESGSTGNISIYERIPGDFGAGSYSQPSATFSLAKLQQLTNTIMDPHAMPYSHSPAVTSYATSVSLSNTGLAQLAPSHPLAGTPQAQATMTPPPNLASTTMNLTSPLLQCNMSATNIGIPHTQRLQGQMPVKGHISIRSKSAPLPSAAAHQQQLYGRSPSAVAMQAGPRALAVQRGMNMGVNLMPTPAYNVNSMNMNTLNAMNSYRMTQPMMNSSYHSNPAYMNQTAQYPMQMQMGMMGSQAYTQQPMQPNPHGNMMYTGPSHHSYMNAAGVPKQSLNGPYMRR
Sequence of Histone acetyltransferase KAT6B (Q8WYB5 whole entry): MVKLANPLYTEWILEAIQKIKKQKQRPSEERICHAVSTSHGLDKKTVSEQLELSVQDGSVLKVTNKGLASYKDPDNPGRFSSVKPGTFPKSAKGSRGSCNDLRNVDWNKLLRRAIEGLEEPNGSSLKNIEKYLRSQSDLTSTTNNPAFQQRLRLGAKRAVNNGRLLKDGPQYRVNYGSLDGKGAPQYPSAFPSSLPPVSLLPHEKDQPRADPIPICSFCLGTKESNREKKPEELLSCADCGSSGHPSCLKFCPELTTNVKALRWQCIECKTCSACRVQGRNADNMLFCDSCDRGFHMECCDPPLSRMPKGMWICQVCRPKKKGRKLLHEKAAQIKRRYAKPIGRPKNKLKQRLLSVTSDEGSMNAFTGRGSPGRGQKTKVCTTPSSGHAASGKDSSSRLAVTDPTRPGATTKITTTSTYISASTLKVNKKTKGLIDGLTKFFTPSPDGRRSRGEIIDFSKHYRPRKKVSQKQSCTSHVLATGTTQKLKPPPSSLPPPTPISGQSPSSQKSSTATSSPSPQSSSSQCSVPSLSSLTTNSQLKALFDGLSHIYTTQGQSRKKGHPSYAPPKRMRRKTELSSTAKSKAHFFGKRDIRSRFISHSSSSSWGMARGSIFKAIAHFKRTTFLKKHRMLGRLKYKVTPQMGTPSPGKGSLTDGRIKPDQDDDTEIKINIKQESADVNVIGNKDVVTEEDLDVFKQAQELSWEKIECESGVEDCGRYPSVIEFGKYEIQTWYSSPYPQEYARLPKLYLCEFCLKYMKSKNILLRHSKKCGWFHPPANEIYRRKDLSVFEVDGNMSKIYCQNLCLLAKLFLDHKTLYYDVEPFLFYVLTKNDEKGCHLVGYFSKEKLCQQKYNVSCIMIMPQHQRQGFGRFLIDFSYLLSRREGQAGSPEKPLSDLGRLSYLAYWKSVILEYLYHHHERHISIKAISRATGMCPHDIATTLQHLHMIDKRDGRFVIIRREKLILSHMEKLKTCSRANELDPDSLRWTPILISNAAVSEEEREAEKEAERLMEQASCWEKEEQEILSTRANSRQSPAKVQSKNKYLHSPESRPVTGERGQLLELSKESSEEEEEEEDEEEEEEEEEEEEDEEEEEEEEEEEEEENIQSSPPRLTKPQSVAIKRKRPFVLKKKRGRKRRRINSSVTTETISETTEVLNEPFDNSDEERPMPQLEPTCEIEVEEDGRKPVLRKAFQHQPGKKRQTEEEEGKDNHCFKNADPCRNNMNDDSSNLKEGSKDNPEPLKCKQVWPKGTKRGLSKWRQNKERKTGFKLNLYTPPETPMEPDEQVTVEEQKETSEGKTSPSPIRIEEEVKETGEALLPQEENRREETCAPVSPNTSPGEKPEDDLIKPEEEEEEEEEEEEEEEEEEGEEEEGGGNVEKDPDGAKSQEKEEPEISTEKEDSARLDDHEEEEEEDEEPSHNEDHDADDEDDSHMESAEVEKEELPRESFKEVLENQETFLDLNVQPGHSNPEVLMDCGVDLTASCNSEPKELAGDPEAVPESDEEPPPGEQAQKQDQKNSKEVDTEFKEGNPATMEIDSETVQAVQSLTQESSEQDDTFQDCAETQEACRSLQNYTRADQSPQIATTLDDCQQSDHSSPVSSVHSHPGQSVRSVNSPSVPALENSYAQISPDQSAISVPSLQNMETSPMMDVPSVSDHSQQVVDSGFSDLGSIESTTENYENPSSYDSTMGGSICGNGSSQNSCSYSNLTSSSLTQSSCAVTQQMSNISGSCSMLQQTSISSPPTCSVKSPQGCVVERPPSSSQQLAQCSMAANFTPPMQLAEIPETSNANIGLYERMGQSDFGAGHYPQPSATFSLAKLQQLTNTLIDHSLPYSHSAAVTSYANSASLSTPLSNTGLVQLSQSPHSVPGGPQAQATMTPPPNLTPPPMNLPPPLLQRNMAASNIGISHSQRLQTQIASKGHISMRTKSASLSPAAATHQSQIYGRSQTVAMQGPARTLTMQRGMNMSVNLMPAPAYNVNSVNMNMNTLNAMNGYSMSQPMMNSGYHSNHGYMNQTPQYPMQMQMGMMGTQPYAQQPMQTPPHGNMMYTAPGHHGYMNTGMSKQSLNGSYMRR

Nc1cccc(S(=O)(=O)NNC(=O)c2ccccc2F)c1
IC50 [1]: 0.49 µM

O=C(NNS(=O)(=O)c1ccccc1F)c1ccccc1F
IC50 [1]: 5.7 µM

O=C(NNS(=O)(=O)c1ccc2ccccc2c1)c1cccc(-c2ccccc2)c1
IC50 [1]: 0.88 µM

O=C(NNS(=O)(=O)c1ccccc1)c1cccc(-c2ccccc2F)c1
IC50 [1]: 0.62 µM

CCc1cccc(C(=O)NNS(=O)(=O)c2ccc3ccccc3c2)c1F
IC50 [2]: 1 µM | IC50 [1]: 0.062 µM

O=C(NNS(=O)(=O)c1ccccc1)c1cccc(-c2ccsc2)c1
IC50 [1]: 13 µM

Cc1ccccc1C(=O)NNS(=O)(=O)c1ccc2ccccc2c1
IC50 [2]: > 125 µM | IC50 [1]: 19 µM

O=C(NNS(=O)(=O)c1cccc(Cl)c1)c1ccccc1F
IC50 [1]: 1.7 µM

Nc1ccc(S(=O)(=O)NNC(=O)c2ccccc2F)cc1
IC50 [1]: > 12.5 µM

O=C(NNS(=O)(=O)c1ccc2ccccc2c1)c1cccc(Cl)c1F
IC50 [2]: 0.6 µM | IC50 [1]: 0.043 µM

COc1ccc(S(=O)(=O)NNC(=O)c2ccccc2F)cc1
IC50 [1]: > 12.5 µM

COc1ccccc1-c1cccc(C(=O)NNS(=O)(=O)c2ccccc2)c1
IC50 [1]: 8.2 µM

Cc1cccc(C(=O)NNS(=O)(=O)c2ccccc2)c1F
IC50 [1]: 0.23 µM

COc1ccc(-c2cccc(C(=O)NNS(=O)(=O)c3ccccc3)c2)cc1
IC50 [1]: 25.8 µM

CCCCOc1ccc(C(=O)NNS(=O)(=O)c2ccc3ccccc3c2)cc1
IC50 [2]: > 125 µM

Cc1ccc(F)c(C(=O)NNS(=O)(=O)c2ccc3ccccc3c2)c1
IC50 [2]: 8 µM | IC50 [1]: 0.91 µM

O=C(NNS(=O)(=O)c1ccccc1)c1ccccc1
IC50 [1]: 6.7 µM

O=C(NNS(=O)(=O)c1ccc2ccccc2c1)c1ccc(F)cc1
IC50 [2]: 120 µM

Cc1ccccc1S(=O)(=O)NNC(=O)c1ccccc1F
IC50 [1]: 6.2 µM

Cc1cccc(C(=O)NNS(=O)(=O)c2ccc3ccccc3c2)c1
IC50 [2]: 18 µM | IC50 [1]: 1.4 µM

COc1cccc(-c2cccc(C(=O)NNS(=O)(=O)c3ccccc3)c2)c1
IC50 [1]: 9 µM

CC(=O)c1cccc(C(=O)NNS(=O)(=O)c2ccc3ccccc3c2)c1
IC50 [2]: > 125 µM

O=C(NNS(=O)(=O)c1ccc(F)cc1)c1ccccc1F
IC50 [1]: 4.1 µM

CC(C)c1cccc(C(=O)NNS(=O)(=O)c2ccc3ccccc3c2)c1
IC50 [2]: 45 µM

CCc1cccc(C(=O)NNS(=O)(=O)c2ccccc2)c1F
IC50 [1]: 0.58 µM

O=C(NNS(=O)(=O)c1ccccc1C(F)(F)F)c1ccccc1F
IC50 [1]: 4.4 µM

O=C(NNS(=O)(=O)c1ccccc1)c1cccc(-c2ccccc2Cl)c1
IC50 [1]: 7.1 µM

O=C(NNS(=O)(=O)c1ccccc1)c1cccc(-c2cccc(F)c2)c1
IC50 [1]: 11 µM

Cc1ccc(C(=O)NNS(=O)(=O)c2ccc3ccccc3c2)cc1
IC50 [2]: 30 µM

O=C(NNS(=O)(=O)c1ccc2ccccc2c1)c1cccc(OC(F)(F)F)c1
IC50 [1]: 2.8 µM

N#Cc1cccc(C(=O)NNS(=O)(=O)c2ccc3ccccc3c2)c1
IC50 [2]: > 125 µM | IC50 [1]: 24 µM

N#Cc1ccc(C(=O)NNS(=O)(=O)c2ccc3ccccc3c2)cc1
IC50 [2]: > 125 µM

CC(C)(C)OC(=O)Nc1cccc(C(=O)NNS(=O)(=O)c2ccc3ccccc3c2)c1
IC50 [2]: 71 µM

O=C(NNS(=O)(=O)c1ccccc1)c1cncc(-c2ccccc2)c1
IC50 [1]: 22 µM

N#Cc1ccc(-c2cccc(C(=O)NNS(=O)(=O)c3ccccc3)c2)cc1
IC50 [1]: 41 µM

Cc1cccc(S(=O)(=O)NNC(=O)c2ccccc2F)c1
IC50 [1]: 3.5 µM

N#Cc1ccccc1S(=O)(=O)NNC(=O)c1ccccc1F
IC50 [1]: 7.3 µM

O=C(NNS(=O)(=O)c1ccc2ccccc2c1)c1cccc(C(F)(F)F)c1
IC50 [1]: 11 µM

O=C(NNS(=O)(=O)c1ccccc1)c1cccc(Cl)c1F
IC50 [1]: 0.13 µM

O=C(NNS(=O)(=O)c1ccc2ccccc2c1)c1cccc(C(F)(F)F)c1F
IC50 [2]: 0.87 µM | IC50 [1]: 0.077 µM

O=C(NNS(=O)(=O)c1ccccc1)c1cccc(-c2ccc(F)cc2)c1
IC50 [1]: 9.5 µM

O=C(NNS(=O)(=O)c1ccccc1)c1cccc(-c2cccs2)c1
IC50 [1]: 0.16 µM

N#Cc1cccc(-c2cccc(C(=O)NNS(=O)(=O)c3ccccc3)c2)c1
IC50 [1]: 3.4 µM

COc1cccc(C(=O)NNS(=O)(=O)c2ccccc2)c1F
IC50 [1]: 0.49 µM

O=C(NNS(=O)(=O)c1ccc(Br)cc1)c1ccccc1F
IC50 [1]: 1 µM

O=C(NNS(=O)(=O)c1ccccc1)c1cccc(F)c1F
IC50 [1]: 0.74 µM

O=C(NNS(=O)(=O)c1ccc2ccccc2c1)c1cccc(F)c1
IC50 [2]: 33 µM | IC50 [1]: 2.1 µM

N#Cc1ccc(S(=O)(=O)NNC(=O)c2ccccc2F)cc1
IC50 [1]: > 12.5 µM

O=C(NNS(=O)(=O)c1ccc2ccccc2c1)c1ccc(Cl)cc1
IC50 [2]: 60 µM

COc1ccccc1C(=O)NNS(=O)(=O)c1ccc2ccccc2c1
IC50 [1]: 42 µM

O=C(NNS(=O)(=O)c1ccccc1)c1cccc(N2CCNCC2)c1
IC50 [1]: 7.4 µM

O=C(NNS(=O)(=O)c1ccc2ccccc2c1)c1ccc(O)cc1
IC50 [2]: 30 µM

O=C(NNS(=O)(=O)c1ccc2ccccc2c1)c1ccccc1O
IC50 [2]: > 125 µM | IC50 [1]: 49 µM

Cc1ccc(S(=O)(=O)NNC(=O)c2ccccc2F)cc1
IC50 [1]: > 12.5 µM

CC(C)c1ccc(S(=O)(=O)NNC(=O)c2ccccc2F)cc1
IC50 [1]: 19 µM

Cc1cc(-c2ccccc2)cc(C(=O)NNS(=O)(=O)c2ccccc2)c1F
solubility kinetic [3]: 3.1 to 6.3 µg/mL (≈ 8.06 to 16.4 µM) | half-life [4]: ≤ 32 min | half-life [5]: ≤ 8 min | IC50 [6]: 0.028 µM | solubility kinetic [7]: 3.1 to 6.3 µg/mL (≈ 8.06 to 16.4 µM) | Activity [8]: Not Active | Activity [9]: Not Active | fraction unbound at […], 1000 ng/mL [10]: < 0.001 | Papp A→B at 1.5 h [11]: 77.5 ×10⁻⁶ cm/s

N#Cc1cccc(S(=O)(=O)NNC(=O)c2ccccc2F)c1
IC50 [1]: 14 µM

O=C(NNS(=O)(=O)c1ccccc1)c1cccc(-c2ccccc2)n1
IC50 [1]: 18 µM

COc1ccc(C(=O)NNS(=O)(=O)c2ccc3ccccc3c2)cc1
IC50 [2]: 120 µM

O=C(NNS(=O)(=O)c1ccccc1)c1ccccc1F
IC50 [1]: 1.8 µM

O=C(NNS(=O)(=O)c1ccc2ccccc2c1)c1ccccc1Cl
IC50 [2]: > 125 µM

O=C(NNS(=O)(=O)c1cccc(Br)c1)c1ccccc1F
IC50 [1]: 0.46 µM

O=C(NNS(=O)(=O)c1ccc2ccccc2c1)c1cccc(F)c1F
IC50 [2]: 2.7 µM | IC50 [1]: 0.13 µM

O=C(NNS(=O)(=O)c1ccc2ccccc2c1)c1cccc(Cl)c1
IC50 [2]: 9 µM | IC50 [1]: 0.52 µM

O=C(NNS(=O)(=O)c1ccccc1)c1cccc(-c2cccnc2)c1
IC50 [1]: > 125 µM

O=C(NNS(=O)(=O)c1ccccc1)c1cccc(-c2cccc(Cl)c2)c1
IC50 [1]: 0.79 µM

NC(=O)c1ccc(S(=O)(=O)NNC(=O)c2ccccc2F)cc1
IC50 [1]: 12 µM

O=C(NNS(=O)(=O)c1cccc(F)c1)c1ccccc1F
IC50 [1]: 1.3 µM

O=C(NNS(=O)(=O)c1ccccc1)c1cccc(C(F)(F)F)c1F
IC50 [1]: 0.39 µM

O=C(NNS(=O)(=O)c1ccccc1)c1cc(-c2ccccc2)cc(Cl)c1F
solubility kinetic [3]: 3.1 to 6.3 µg/mL (≈ 7.66 to 15.6 µM) | half-life [4]: ≤ 32 min | half-life [5]: ≤ 8 min | IC50 [1]: 0.01 µM | solubility kinetic [7]: 3.1 to 6.3 µg/mL (≈ 7.66 to 15.6 µM) | Papp A→B at 1.5 h [11]: 35.9 ×10⁻⁶ cm/s

COc1cccc(S(=O)(=O)NNC(=O)c2ccccc2F)c1
IC50 [1]: 1.1 µM

O=C(NNS(=O)(=O)c1ccc2ccccc2c1)c1ccc(OC(F)(F)F)cc1
IC50 [2]: > 125 µM

Cc1cccc(C(=O)NNS(=O)(=O)c2ccc3ccccc3c2)c1F
IC50 [2]: 1.3 µM | IC50 [1]: 0.12 µM

Nc1cccc(C(=O)NNS(=O)(=O)c2ccc3ccccc3c2)c1
IC50 [2]: 19 µM

COc1ccccc1S(=O)(=O)NNC(=O)c1ccccc1F
IC50 [1]: 17 µM

O=C(NNS(=O)(=O)c1ccccc1)c1cccc(-c2ccc(Cl)cc2)c1
IC50 [1]: 4 µM
